Reference: US20160287710A1 (UNIVERSITY OF UTAH RESEARCH FOUNDATION, priority 2013, published 2016)
Values after ≈ are worked out from the molar mass of the structure shown.

Assay: Solubility of progesterone in glycol chitin solutions (reverse-phase HPLC)
Format: physicochemical
Details: aqueous with cosolvent or surfactant or cyclodextrin
Method: A mixture of methanol/water (80:20; v/v) was used, as the mobile phase at a flow rate of 1 mL per minute. […] FIG. 1.

- solubility at 24 h (5 wt % glycol chitin solution, 4 °C, thermodynamic from solid): 148 ± 13.8 µg/mL (≈ 472 µM)
- solubility (in a mixture of PEG-400/water (50:50 v/v)): ~200 µg/mL (≈ 636 µM)
Compound: CC(=O)[C@H]1CC[C@H]2[C@@H]3CCC4=CC(=O)CC[C@]4(C)[C@H]3CC[C@]12C [Progesterone]
